Series [1] can be described thus: Inhibition of AZT glucuronidation by human UGT enzymes from liver microsomes. Also on record: species or system Microsome. Background: Microsomes from liver hold many membrane-bound enzymes, among them those of drug oxidation.
Series [2] is described as follows: Inhibition of ciramadol glucuronidation by human UGT enzymes from liver microsomes. Also on record: species or system Microsome.
The nature of series [3]: Inhibition of codeine glucuronidation by human UGT enzymes from liver microsomes. Also on record: species or system Microsome.
A short description of series [4]: Inhibition of morphine glucuronidation by human UGT enzymes from liver microsomes. The arrangement: species or system Microsome.
In series [5] the target is T1, UDP-glucuronosyltransferase 1A4 (Homo sapiens, UniProt P22310).
T1 sequence (P22310 whole entry): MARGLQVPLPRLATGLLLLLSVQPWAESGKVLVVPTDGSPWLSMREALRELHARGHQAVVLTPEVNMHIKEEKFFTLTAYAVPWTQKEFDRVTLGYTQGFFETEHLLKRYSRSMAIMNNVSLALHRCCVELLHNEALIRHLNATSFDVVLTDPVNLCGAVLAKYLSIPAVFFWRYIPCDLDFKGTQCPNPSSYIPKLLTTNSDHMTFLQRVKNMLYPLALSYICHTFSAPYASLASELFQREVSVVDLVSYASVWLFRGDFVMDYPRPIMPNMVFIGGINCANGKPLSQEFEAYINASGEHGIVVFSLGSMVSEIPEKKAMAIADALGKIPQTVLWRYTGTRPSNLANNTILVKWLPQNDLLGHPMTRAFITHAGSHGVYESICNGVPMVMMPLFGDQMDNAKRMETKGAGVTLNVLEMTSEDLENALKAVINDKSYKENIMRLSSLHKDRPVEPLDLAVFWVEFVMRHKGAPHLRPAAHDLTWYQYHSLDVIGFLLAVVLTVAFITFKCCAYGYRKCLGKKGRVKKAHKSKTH
Put plainly: Drug glucuronidation reaction catalyzed by human recombinant UGT1A4.

Series [6] is described as follows: Inhibition of morphine (3-O-glucuronidation) glucuronidation by human UGT enzymes from liver microsomes. The arrangement: species or system Microsome.
A short description of series [7]: Inhibition of morphine (6-O-glucuronidation) glucuronidation by human UGT enzymes from liver microsomes. The arrangement: species or system Microsome.
A short description of series [8]: Inhibition of mycophenolic acid (0.5 mM) glucuronidation by human kidney microsomes. The arrangement: species or system Microsome.
Series [9] in a line: Inhibition of mycophenolic acid (1 mM) glucuronidation by human UGT enzymes from liver microsomes. Also on record: species or system Microsome.
Series [10] has as its target T2, UDP-glucuronosyltransferase 1A3 (Homo sapiens, UniProt P35503).
T2 sequence (P35503 whole entry): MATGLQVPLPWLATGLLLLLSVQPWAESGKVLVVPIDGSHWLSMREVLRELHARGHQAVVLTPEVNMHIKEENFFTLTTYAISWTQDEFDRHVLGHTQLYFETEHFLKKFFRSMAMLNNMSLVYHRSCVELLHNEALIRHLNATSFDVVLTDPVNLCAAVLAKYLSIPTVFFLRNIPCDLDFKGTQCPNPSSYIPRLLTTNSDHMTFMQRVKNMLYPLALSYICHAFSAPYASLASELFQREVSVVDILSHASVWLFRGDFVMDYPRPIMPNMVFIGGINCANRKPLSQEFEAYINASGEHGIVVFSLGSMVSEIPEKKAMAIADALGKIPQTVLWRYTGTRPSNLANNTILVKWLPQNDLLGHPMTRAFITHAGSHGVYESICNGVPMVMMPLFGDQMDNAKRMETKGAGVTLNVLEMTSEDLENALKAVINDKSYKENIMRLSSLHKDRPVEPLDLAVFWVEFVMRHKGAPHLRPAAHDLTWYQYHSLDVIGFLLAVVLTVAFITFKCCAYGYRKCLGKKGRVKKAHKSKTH
The experiment in a line: Drug glucuronidation reaction catalyzed by human recombinant UGT1A3.

Series [11] concerns the target T3, UDP-glucuronosyltransferase 2B7 (Homo sapiens, UniProt P16662).
T3 sequence (P16662 whole entry): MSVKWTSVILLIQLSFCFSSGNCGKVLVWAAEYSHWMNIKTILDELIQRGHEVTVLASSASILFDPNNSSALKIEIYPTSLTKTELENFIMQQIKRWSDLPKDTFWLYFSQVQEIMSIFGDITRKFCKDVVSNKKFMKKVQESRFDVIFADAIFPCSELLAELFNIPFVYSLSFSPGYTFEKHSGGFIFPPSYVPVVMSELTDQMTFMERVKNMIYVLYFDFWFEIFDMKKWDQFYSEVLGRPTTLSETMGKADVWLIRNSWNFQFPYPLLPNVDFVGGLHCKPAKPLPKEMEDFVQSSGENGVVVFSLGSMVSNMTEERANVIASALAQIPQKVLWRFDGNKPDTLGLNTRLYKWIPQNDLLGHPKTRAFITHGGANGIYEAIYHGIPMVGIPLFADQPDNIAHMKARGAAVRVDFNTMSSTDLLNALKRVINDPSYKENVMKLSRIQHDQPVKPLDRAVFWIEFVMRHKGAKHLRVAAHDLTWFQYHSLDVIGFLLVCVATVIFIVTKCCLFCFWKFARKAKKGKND
Put plainly: (§1) Drug glucuronidation reaction catalyzed by human recombinant UGT2B7.

The target of a further series is T4, UGT2B7 (Homo sapiens, UniProt P16662).
T4 sequence (P16662 whole entry): T3 sequence (P16662 whole entry)
Described as §1. The following applies: recombinant UGT2B7.

Several values for one entry are separate records, joined by “and”; a condition that tells them apart may be missing. Equal values may be shown once.

In general, Ki refers to a dissociation constant, usually derived from enzyme kinetics or from competition with a known ligand. A lower Ki goes with a stronger hold on the target. `Cc1cc(CC(=O)O)n(C)c1C(=O)c1ccc(Cl)cc1` [ZOMEPIRAC] showed a Ki in series [1] of 2100 µM. On the same count and under the same terms, the value for `CN/C(=N\CCSCc1nc[nH]c1C)NC#N` [CIMETIDINE] was 11000 µM.

In the case of `CN1C(=O)CN=C(c2ccccc2)c2cc(Cl)ccc21` [DIAZEPAM], the inhibition constant (Ki) turned out to be 300 µM in [1], 40 µM in [2], 180 µM in series [3] and 120 µM in [4]. With `Cc1noc(NS(=O)(=O)c2ccc(N)cc2)c1C` [SULFISOXAZOLE], in [1], the inhibitory constant (Ki) came to 47000 µM.

Regarding `C=CCN1CC[C@]23c4c5ccc(O)c4O[C@H]2C(=O)CC[C@@]3(O)[C@H]1C5` [NALOXONE], in series [4], the affinity, expressed as Ki, was 630 µM. As usually defined, the Km is the substrate concentration at which the rate is half of its maximum. For the molecule `CN(C)CCCN1c2ccccc2CCc2ccccc21` [IMIPRAMINE], in series [5], the Km is 310 µM and the Vmax amounted to 180 pmol/min/mg protein.

For `COc1ccc2cc([C@H](C)C(=O)O)ccc2c1` [NAPROXEN], in [1], the Ki was 172 µM and 1100 µM. For `O=C1Nc2ccc(Cl)cc2C(c2ccccc2Cl)=NC1O` (stereo unspecified) [LORAZEPAM], the Ki in [1] stood at 160 µM; in series [2], 140 µM; in series [4], 160 µM. Take `CN1C(=O)CN=C(c2ccccc2F)c2cc([N+](=O)[O-])ccc21` [FLUNITRAZEPAM]: the inhibitory constant (Ki) in series [1] is 190 µM. `COc1ccc2c(c1)c(CC(=O)O)c(C)n2C(=O)c1ccc(Cl)cc1` [INDOMETHACIN] gave a Ki in [1] of 200 µM. As for `CN(C)CCC=C1c2ccccc2CCc2ccccc21` [AMITRIPTYLINE], the figures for the inhibitory constant (Ki) in [3], in [6] and in series [7] were 130 µM, 160 µM and 80 µM, respectively. With `C[C@]12CC[C@H]3[C@@H](CCC4=CC(=O)CC[C@@]43C)[C@@H]1CC[C@@H]2O` [TESTOSTERONE], affinity in series [1] was put at a Ki of 250 µM. Usually IC50 stands for the point on the concentration scale where inhibition reaches its midpoint. Low values mean greater potency in that assay, high ones weaker potency in that assay. As for `Cc1cccc(Nc2ccccc2C(=O)O)c1C` [MEFENAMIC ACID], the figures for the IC50 in series [8] and in series [9] were 49 µM and 63 µM, respectively. For the molecule `CN(C)CCCN1c2ccccc2CCc2ccc(Cl)cc21` [CLOMIPRAMINE], the Ki in [6] is 90 µM; in series [7] it was 56 µM. Consider `CN1CCC(=C2c3ccccc3CC(=O)c3sccc32)CC1` [KETOTIFEN], for which the Vmax in series [10] is 6 pmol/min/mg protein and 12 pmol/min/mg protein; in series [5] it was 130 pmol/min/mg protein and 140 pmol/min/mg protein. Take `CCOC(=O)Nc1ccc(NCc2ccc(F)cc2)cc1N` [EZOGABINE]: the Km in [5] is 322 µM. `O=C1C(CC[S+]([O-])c2ccccc2)C(=O)N(c2ccccc2)N1c1ccccc1` (stereo unspecified) [SULFINPYRAZONE] yielded a Ki in series [1] of 2100 µM. For the molecule `O=C(N[C@H](CO)[C@H](O)c1ccc([N+](=O)[O-])cc1)C(Cl)Cl` [CHLORAMPHENICOL], the results for the inhibition constant (Ki) in [1], in [3] and in [4] were 250 µM, 270 µM and 980 µM, respectively.

On to `O=C(O)c1ccccc1Nc1cccc(C(F)(F)F)c1` [FLUFENAMIC ACID], for which the IC50 in [8] stood at 13 µM; in [9], 19 µM. `Nc1ccc(S(=O)(=O)Nc2nccs2)cc1` [SULFATHIAZOLE]: the affinity in series [1] corresponds to a Ki of 24000 µM. This counts as millimolar. On to `O=C(O)c1cccnc1Nc1cccc(C(F)(F)F)c1` [NIFLUMIC ACID], for which the IC50 in series [8] and in series [9] was 8 µM each time. Take `CCCCC1C(=O)N(c2ccccc2)N(c2ccccc2)C1=O` [PHENYLBUTAZONE]: the Ki in series [1] was 1400 µM; in series [3] it was 1700 µM. As for `CNCCC=C1c2ccccc2CCc2ccccc21` [NORTRIPTYLINE], the values for the inhibitory constant (Ki) in series [6] and in [7] were 33 µM and 27 µM, respectively. As for `Cc1cn([C@H]2C[C@H](N=[N+]=[N-])[C@@H](CO)O2)c(=O)[nH]c1=O` [ZIDOVUDINE], the Vmax in series [11] worked out at 210 pmol/min/mg protein. In addition, the Km on UGT2B7 worked out at 770 µM. In the case of `O=C(O)c1cc(-c2ccc(F)cc2F)ccc1O` [DIFLUNISAL], the results for the concentration for half-maximal inhibition (IC50) in series [8] and in series [9] were 122 µM and 109 µM, respectively.

In the case of `Nc1ccc(S(=O)(=O)c2ccc(N)cc2)cc1` [DAPSONE], in series [1], the Ki turned out to be 1700 µM.

With `C#C[C@]1(O)CC[C@H]2[C@@H]3CCc4cc(O)ccc4[C@H]3CC[C@@]21C` [ETHINYL ESTRADIOL], the Ki in series [1] is 38 µM and 150 µM.

For the origin of these results see ChEMBL document CHEMBL1908105, “UDP-glucuronosyltransferases and clinical drug-drug interactions” (Pharmacol Ther, 2005).
